Test results published in patent US20240246960A1 (adMare Therapeutics Society, priority 2021, published 2024).
Where two headings read alike, the source gives them in different places.

What was measured:
[1] = target: T1, pDNA-PK ser2056 induction in HCT116 spheroids (Homo sapiens, UniProt P78527); experiment: Multicellular tumour spheroid + radiation, pDNA-PK inhibition, HCT116; format: cell-based; conditions: 20 Gy, 20% O2
T1 construct: endogenous in cells; host or cells: HCT116 multicellular tumour spheroids
Method in brief: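 EC50 (μM) is concentration halving radiation-induced pDNA-PK ser2056, scored by fluorescent immunostaining of cryosections 2 h after 20 Gy. HCT116 tumour spheroids (~0.5 mm, stirred, 20% O2/5% CO2, 37 °C) exposed to serial dilutions from 10 or 5 μM to 3.5 nM starting 1 h before irradiation.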

[2] = Hepatocyte stability assay, mouse hepatocytes; format: in vitro ADME; conditions: for hepatocyte CLint at 1 uM: male, CD-1, mouse, cryopreserved hepatocytes, pH 7.3, 0.7 million cells per mL, 1 uM compound
Description: (§1) Cryopreserved mouse hepatocytes were obtained from a pool of 10 or more male CD-1 mice. Cryopreserved human hepatocytes were obtained from a pool of 10 or more donors of mixed gender. Final hepatocyte density was 0.7 million viable cells per mL and test compound concentration was 1 uM with a maximum of 0.01% DMSO. Cryopreserved hepatocytes were thawed, washed, and resuspended in Krebs-Heinslet buffer (pH 7.3). The reaction was initiated by adding the test compound into cell suspension and incubated for 0, […], 1, 1.5, and 2 h, respectively, at 37° C./5% CO2. The reaction was stopped by adding acetonitrile into the incubation mixture. Samples were then mixed, transferred completely to another 96-well plate, and centrifuged. Supernatants were used for HPLC-MS/MS analysis. […] Peak areas corresponding to the test compound were recorded.

[3] = Hepatocyte stability assay, human hepatocytes; format: in vitro ADME; conditions: for hepatocyte CLint at 1 uM: both sexes, human, cryopreserved hepatocytes, pH 7.3, 0.7 million cells per mL, 1 uM compound
Description: as §1

[4] = Microsomal stability assay, mouse liver microsomes; conditions: for microsomal CLint at 0.1 uM: male, CD-1, mouse, liver microsomes, pH 7.4, Microsomal Stability Mouse Clint, 0.1 mg/mL microsomes, 0.1 uM compound
Description: Mouse liver microsomes were obtained from a pool of 250 or more male CD-1 mice. […] Final microsomal concentration was 0.1 mg/mL and test compound concentration was 0.1 uM with a maximum of 0.01% DMSO. The test compound was pre-incubated with pooled liver microsomes in phosphate buffer (pH 7.4) for 5 min in a 37° C. shaking water bath. The reaction was initiated by adding NADPH-generating system and incubated for 0, 15, 30, 45, and 60 min. The reaction was stopped by transferring the incubation mixture to acetonitrile/methanol. Samples were then mixed and centrifuged. Supernatants were used for HPLC-MS/MS analysis. The HPLC system consisted of a binary LC pump with autosampler, a C-18 column, and a gradient. Peak areas corresponding to the test compound were recorded. The compound remaining was calculated by comparing the peak area at each time point to time zero. The half-life was calculated from the slope of the initial linear range of the logarithmic curve of compound remaining (%) vs. time, assuming first order kinetics. In addition, the intrinsic clearance (Clint) was calculated from the half-life.

[5] = Example 7, spheroid, cell line HCT115 [sic], read-out: EC50 (pDNA-PK inhibition, immunohistochemical endpoint)
[6] = Example 9 Study 2, read-out: Spheroid Cell line: HCT116 Immunohistochemical endpoint pDNA-PK inhibition EC50

SMILES	EC50 [1, 5] [µM]	EC50 [1, 6] [µM]	Hepatocyte Stability (mouse) % rem. 120 min [2]	hepatocyte CLint at 1 uM [2] [µL/min/1e6 cells]	Hepatocyte Stability (human) % rem. 120 min [3]	hepatocyte CLint at 1 uM [3] [µL/min/1e6 cells]	Microsomal Stability (mouse) % rem. 60 min [4]	microsomal CLint at 0.1 uM [4] [µL/min/mg]
FC(F)c1ccc2c(O[C@H]3CC[C@@H](Nc4ncccn4)CC3)nc(N3CCOCC3)cc2n1 [Compound 21, N-((1s,4s)-4-((2-(Difluoromethyl)-7-morpholino-1,6-naphthyridin-5-yl)oxy)cyclohexyl)pyrimidin-2-amine]	10 to 100	10 to 100	G (% remaining = 50-75%)	< 8.2	G (% remaining = 50-75%)	< 8.2	–	–
FC(F)c1ccnc2cc(N3CCOCC3)nc(O[C@H]3CC[C@@H](Nc4ncccn4)CC3)c12 [Compound 22, N-((1s,4s)-4-((4-(Difluoromethyl)-7-morpholino-1,6-naphthyridin-5-yl)oxy)cyclohexyl)pyrimidin-2-amine]	0.5 to 1	0.5 to 1	F (% remaining = 25-50%)	> 8.2	E (% remaining = 0-25%)	> 8.2	–	–
c1cnc2cc(N3CCOCC3)nc(O[C@H]3CC[C@@H](Nc4cncnc4)CC3)c2c1 [Compound 28, N-((1s,4s)-4-((7-morpholino-1,6-naphthyridin-5-yl)oxy)cyclohexyl)pyrimidin-5-amine]	1 to 10	1 to 10	E (% remaining = 0-25%)	> 8.2	–	–	E (% remaining = 0-25%)	> 116
Cn1cnc(N[C@H]2CC[C@@H](Oc3nc(N4CCOCC4)cc4ncccc34)CC2)n1 [Compound 31, 1-methyl-N-((1s,4s)-4-((7-morpholino-1,6-naphthyridin-5-yl)oxy)cyclohexyl)-1H-1,2,4-triazol-3-amine]	1 to 10	1 to 10	H (% remaining = 75-100%)	< 8.2	F (% remaining = 25-50%)	> 8.2	–	–
COc1ccc(N[C@H]2CC[C@@H](Oc3nc(N4CCOCC4)cc4ncccc34)CC2)nn1 [Compound 38, 6-methoxy-N-((1s,4s)-4-((7-morpholino-1,6-naphthyridin-5-yl)oxy)cyclohexyl)pyridazin-3-amine]	1 to 10	1 to 10	F (% remaining = 25-50%)	> 8.2	E (% remaining = 0-25%)	> 8.2	–	–
Nc1cnc(N[C@H]2CC[C@@H](Oc3nc(N4CCOCC4)cc4ncccc34)CC2)nc1 [Compound 43, N2-((1s,4s)-4-((7-morpholino-1,6-naphthyridin-5-yl)oxy)cyclohexyl)pyrimidine-2,5-diamine]	0.01 to 0.5	0.01 to 0.5	F (% remaining = 25-50%)	> 8.2	G (% remaining = 50-75%)	< 8.2	–	–
CS(=O)(=O)Nc1cnc(N[C@H]2CC[C@@H](Oc3nc(N4CCOCC4)cc4ncccc34)CC2)nc1 [Compound 44, N-(2-(((1s,4s)-4-((7-morpholino-1,6-naphthyridin-5-yl)oxy)cyclohexyl)amino)pyrimidin-5-yl)methanesulfonamide]	0.5 to 1	0.5 to 1	G (% remaining = 50-75%)	< 8.2	H (% remaining = 75-100%)	< 8.2	–	–
Oc1cnc(N[C@H]2CC[C@@H](Oc3nc(N4CCOCC4)cc4ncccc34)CC2)nc1 [Compound 45, 2-(((1s,4s)-4-((7-morpholino-1,6-naphthyridin-5-yl)oxy)cyclohexyl)amino)pyrimidin-5-ol]	0.5 to 1	0.5 to 1	F (% remaining = 25-50%)	> 8.2	F (% remaining = 25-50%)	< 8.2	–	–
NS(=O)(=O)c1cnc(N[C@H]2CC[C@@H](Oc3nc(N4CCOCC4)cc4ncccc34)CC2)nc1 [Compound 46, 2-(((1s,4s)-4-((7-morpholino-1,6-naphthyridin-5-yl)oxy)cyclohexyl)amino)pyrimidine-5-sulfonamide]	0.5 to 1	0.5 to 1	G (% remaining = 50-75%)	< 8.2	G (% remaining = 50-75%)	< 8.2	–	–
Cc1ccnc(N[C@H]2CC[C@@H](Oc3nc(N4CCOCC4)cc4ncccc34)CC2)n1 [Compound 48, 4-methyl-N-((1s,4s)-4-((7-morpholino-1,6-naphthyridin-5-yl)oxy)cyclohexyl)pyrimidin-2-amine]	0.5 to 1	0.5 to 1	F (% remaining = 25-50%)	> 8.2	F (% remaining = 25-50%)	< 8.2	–	–
COc1ccnc(N[C@H]2CC[C@@H](Oc3nc(N4CCOCC4)cc4ncccc34)CC2)n1 [Compound 49, 4-methoxy-N-((1s,4s)-4-((7-morpholino-1,6-naphthyridin-5-yl)oxy)cyclohexyl)pyrimidin-2-amine]	1 to 10	1 to 10	F (% remaining = 25-50%)	> 8.2	F (% remaining = 25-50%)	> 8.2	–	–
NC(=O)c1cnc(N[C@H]2CC[C@@H](Oc3nc(N4CCOCC4)cc4ncccc34)CC2)nc1 [Compound 52, 2-(((1s,4s)-4-((7-morpholino-1,6-naphthyridin-5-yl)oxy)cyclohexyl)amino)pyrimidine-5-carboxamide]	0.01 to 0.5	0.01 to 0.5	H (% remaining = 75-100%)	< 8.2	G (% remaining = 50-75%)	< 8.2	–	–
O=C(N[C@H]1CC[C@@H](Oc2nc(N3CCOCC3)cc3ncccc23)CC1)c1cccnc1 [Compound 115, N-((1s,4s)-4-((7-morpholino-1,6-naphthyridin-5-yl)oxy)cyclohexyl)nicotinamide]	1 to 10	1 to 10	F (% remaining = 25-50%)	> 8.2	–	–	F (% remaining = 25-50%)	> 116
O=C(N[C@H]1CC[C@@H](Oc2nc(N3CCOCC3)cc3ncccc23)CC1)c1ccncn1 [Compound 118, N-((1s,4s)-4-((7-morpholino-1,6-naphthyridin-5-yl)oxy)cyclohexyl)pyrimidine-4-carboxamide]	1 to 10	1 to 10	E (% remaining = 0-25%)	> 8.2	–	–	F (% remaining = 25-50%)	> 116
O=C(N[C@H]1CC[C@@H](Oc2nc(N3CCOCC3)cc3ncccc23)CC1)c1nccs1 [Compound 135, N-((1s,4s)-4-((7-morpholino-1,6-naphthyridin-5-yl)oxy)cyclohexyl)thiazole-2-carboxamide]	1 to 10	1 to 10	F (% remaining = 25-50%)	> 8.2	–	–	E (% remaining = 0-25%)	> 116
